Experimental findings from patent US20250170141A1, “MRGPRX2 MODULATORS AND RELATED METHODS OF TREATMENT” (Escient Pharmaceuticals, Inc., priority 2023, published 2025) are described below.

In brackets after ≈: the same amount, converted by molar mass. Where two headings read alike, the source gives them in different places.

The subject of one data set is Human LAD2 cells. The data set can be described thus: Mast Cell Beta-Hexosaminidase Release Assay (LAD2 cells, 500 nM Cortistatin-14). The class given is cell-based. To be noted: Homo sapiens, LAD2, Mast Cell Beta-Hexosaminidase Release Assay, read-out: MRGPRX2 Antagonist Activity. How it is done: Human LAD2 cells (NIH) were maintained in an incubator at 37° C. with 5% CO2 and cultured in StemPro-34 serum-free media (Gibco 10639011) supplemented with 2 mM L-glutamine, 100 U/ml penicillin, […] streptomycin and 100 ng/ml SCF (Invitrogen PEP0860), at a concentration of 2-5×10^5 cells/mL, with hemidepletion every 1-2 weeks.
Cells were transferred to SCF-Free medium at 2.5×10^5 cells/mL and kept in an incubator overnight. On the day of the assay, cells were washed twice in Assay Buffer (final concentrations 10 mM HEPES, 137 mM NaCl, 5.6 mM D-glucose, 2.7 mM KCl, 1 mM MgCl, 1.8 mM CalCl2, 0.4 mM Na2HPO4·7H2O, 0.04% BSA, pH=7.4) and plated in a 96-well v-bottom plate at 20,000 cells per well in 80 μL Assay Buffer. Antagonist compounds solubilized at 10 mM in DMSO were diluted in Assay Buffer to 10× final desired concentrations as a 10-point curve (10 μM final top concentration with 1:3 serial dilutions) and 10 μL added per well. Plates were then incubated for 1 hour at 37° C. Agonists were diluted in Assay Buffer to 10× desired concentrations and 10 μL of the appropriate agonist added to each well. The final concentration of Cortistatin-14 (Tocris 3374) used in antagonist assays was 500 nM. Final concentrations of DMSO were kept consistent across the plate. Plates were then incubated in a warm air oven for 30 minutes at 37° C., followed by centrifugation at 4° C. for 5 minutes at 450×g. 50 μL supernatant from each well was then transferred to a 96-well flat bottom plate containing 100 μL substrate solution per well (3.5 mg/mL p-Nitrophenyl-N-acetyl-o-D-glucosaminide (Sigma 487052) in Citrate Buffer containing a final concentration of 40 mM Citric Acid, 20 mM Na2HPO4·7H2O, pH=4.5). To the cell pellets left in the remaining assay buffer, 150 μL 0.1% Triton-X-100 was then added to each well, resuspended by pipetting up and down, and 50 μL cell lysates transferred to a second 96-well flat bottom plate containing 100 μL substrate solution per well. Plates containing transferred supernatant and cell lysates were then incubated in a warm air oven for 90 minutes at 37° C. After incubation, 50 μL of 400 mM Glycine buffer (pH 10.7) was added into each well and the plate was read on a Molecular Devices SpectraMax iD5 plate reader (absorbance at 405 nm with reference filter at 620 nm). After background subtraction, the percentage degranulation (percent beta-hexosaminidase release) was calculated as 100×(supernatant values)/(supernatant+lysate values), followed by analysis using GraphPad Prism software to calculate an IC50 value for each compound.
The activity ranges are denoted as follows: “+++++” denotes antagonist activity <100 nM; “++++” denotes antagonist activity between 100 and 500 nM; “+++” denotes activity between 501 and 1000 nM; “++” denotes activity between 1001 and 2500 nM; and “+” denotes activity >2500 nM.

Data set [1] in a line: Solubility Studies in FaSSIF, FeSSIF, FaSSGF (24 hours, room temperature, UPLC-UV). The class given is physicochemical. To be noted: kinetic from dmso stock, 24 hours at room temperature. How it is done: Media according to Biorelevant Media protocols was prepared. 10 μL of 10 mM in DMSO stock solutions of test compounds was added to 96-well deep plate. 490 μL of FaSSIF, FeSSIF, or FaSSGF was then added into appropriate wells of 96-well deep plate. The plate was vortexed for 2 minutes then placed on a plate shaker for 24 hours at room temperature. The plate was centrifuged for 20 minutes, then supernatant was collected and filtered with […] syringe filter into UPLC vials for injection into UPLC-UV system. Concentration was calculated with a 3-point standard curve.

Data set [2] in a line: Mouse Pharmacokinetic Studies (50 mg/kg oral gavage, plasma LC-MS/MS). It counts as in vivo. To be noted: male C57BL/6 mice, non-fasted; for Cmax / half-life: male, C57BL/6, mouse, po, 50 mg/kg. The method, then: Compounds were formulated in 5% DMSO, 5% Solutol, and 90% PBS without Ca and Mg (pH 7.4) at a concentration of […]. Male C57BL/6 mice (n=6/compound) were administered a 50 mg/kg dose of each compound by oral gavage under a non-fasted condition. Blood samples were collected via the Submandibular vein onto K2-EDTA at 0.5, 1, 2, 4, 8 and 24 hours after dosing, and plasma was prepared and stored at −80° C. until analysis. Plasma sample preparation for analysis was done by protein precipitation using acetonitrile (including Verapamil as an internal standard) followed by centrifugation. Compound concentrations were determined in extracted plasma using LC-MS/MS relative to a 12-point standard curve covering the 1 to 4000 nM range. Non-compartmental analysis using Phoenix WinNonlin was used to estimate pharmacokinetic parameters including area under the curve, clearance, and half-life. The administered dose was confirmed by analysis of residual dosing material by UPLC-UV relative to a single point calibration sample.

The next data set addresses T1, human MRGPRX2 (Homo sapiens, UniProt Q96LB1).
T1 construct: expressed in transfected cells; host or cells: CHO cells, stably transfected (G418 and Hygromycin B selection)
T1 sequence (Q96LB1 1-330): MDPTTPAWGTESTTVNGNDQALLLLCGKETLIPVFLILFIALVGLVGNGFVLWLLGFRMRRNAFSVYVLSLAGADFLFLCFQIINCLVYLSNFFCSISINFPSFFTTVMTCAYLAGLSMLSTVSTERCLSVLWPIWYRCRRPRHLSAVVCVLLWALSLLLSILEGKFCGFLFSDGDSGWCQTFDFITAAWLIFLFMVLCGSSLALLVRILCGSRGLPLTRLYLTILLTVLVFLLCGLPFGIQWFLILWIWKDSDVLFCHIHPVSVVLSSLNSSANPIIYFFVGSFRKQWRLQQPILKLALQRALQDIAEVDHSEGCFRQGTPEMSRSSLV
The data set is described as follows: MRGPRX2 activity: IP-One Gq HTRF assay in CHO cells, antagonism versus 0.3 uM Cortistatin-14. The note with it: versus 0.3 uM Cortistatin-14 agonist, CHO cells expressing human MRGPRX2, read-out: MRGPRX2 Antagonist Activity. The class given is cell-based. The method in brief:
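CHO cells stably expressing human MRGPRX2 were treated with a 10-point compound curve (30 uM top, 1:3) plus 0.3 μM Cortistatin-14 in LiCl-containing Tris buffer, pH 8. Incubation was 1 h at 37 °C then 1 h at room temperature; IP-1 was detected by HTRF and IC50 came from the HTRF ratio.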
Background: TR-FRET usually uses a lanthanide donor and a delayed reading to cut background.

Where [3] appears, read: fassgf or other biorelevant, solubility in FaSSGF, read-out: FaSSGF.
The mark [4] stands for this setting: solubility in FaSSIF, read-out: FaSSIF.
[5] abbreviates: solubility in FeSSIF, read-out: FeSSIF.

Consider `O=S1(=O)N=C(NCc2ncccc2F)Nc2c1ccc(F)c2Oc1ccccc1Cl` [Compound 2-1, 5-(2-chlorophenoxy)-6-fluoro-3-(((3-fluoropyridin-2-yl)methyl)amino)-4H-benzo[e][1,2,4]thiadiazine 1,1-dioxide], for which the IC50 in the data set with Human LAD2 cells was 100 to 500 nM; at human MRGPRX2 it was less than 100 nM. Also, the solubility kinetic at 24 h in data set [1] (setting [3]), in data set [1] (setting [4]) and in data set [1] (setting [5]) was less than 12.5 µM each time. In data set [2], this compound displayed a TBC of 8.8 mL/min/kg. The Cmax (usually the highest concentration seen after dosing) in data set [2] is 11 µM. Moreover, the half-life (in general, the time needed for the level to fall by half in the phase considered) in data set [2] was 2.8 h.
On to `CC(c1ccccc1F)c1c(F)ccc2c1NC(NCc1ncccc1F)=NS2(=O)=O` (stereo not drawn) [Compound 9-1, 6-fluoro-5-(1-(2-fluorophenyl)ethyl)-3-(((3-fluoropyridin-2-yl)methyl)amino)-4H-benzo[e][1,2,4]thiadiazine 1,1-dioxide], for which the IC50 in the data set on Human LAD2 cells and at human MRGPRX2 was less than 100 nM in each case. Also, the solubility kinetic at 24 h came to 19 µM (≈ 8.48 µg/mL) in data set [1] (setting [3]), 114 µM (≈ 50.9 µg/mL) in data set [1] (setting [4]) and 74 µM (≈ 33 µg/mL) in data set [1] (setting [5]). The compound further returned a TBC in data set [2] of 13 mL/min/kg. This compound displayed a Cmax in data set [2] of 8.7 µM. For the same compound, the half-life in data set [2] was 1.8 h.
In the case of `C[C@@H](c1ccccc1F)c1c(F)c(F)cc2c1NC(NCc1ncccc1F)=NS2(=O)=O` [Compound 10-6A, (S)-6,7-difluoro-5-(1-(2-fluorophenyl)ethyl)-3-(((3-fluoropyridin-2-yl)methyl)amino)-4H-benzo[e][1,2,4]thiadiazine 1,1-dioxide], the IC50 with Human LAD2 cells and on human MRGPRX2 was less than 100 nM in each case. The solubility kinetic at 24 h came out at 27 µM (≈ 12.5 µg/mL) in data set [1] (setting [3]), 30 µM (≈ 13.9 µg/mL) in data set [1] (setting [4]) and 178 µM (≈ 82.7 µg/mL) in data set [1] (setting [5]). The TBC in data set [2] came out at 11 mL/min/kg. Further, the concentration in data set [2] peaked (Cmax) at 11 µM. The compound also had a half-life in data set [2] of 2.1 h.
